This is an account of results in patent US20260217706A1, “HETEROCYCLIC COMPOUNDS, PREPARATION METHOD THEREFOR AND USE THEREOF” (GUANGZHOU YUFAN NANTU BIOTECHNOLOGIES CO., LTD, priority 2023, published 2026).

One test concerns the target CBL-B protein (Homo sapiens, UniProt Q13191). The test can be described thus: CBL-B binding experiment (Streptavidin-Tb cryptate / Ligand L1 displacement). The note with it: 8 nM CBL-B protein, 25° C., 60 minutes; Ki=Relative IC50/2. In a few lines:
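Compounds in a 10-point DMSO series met 8 nM CBL-B protein in HEPES pH 7.5/NaCl/Triton/TCEP/BSA buffer at 25° C. for 60 min. A further 60 min at room temperature preceded the luminescence read, normalised to no-protein and DMSO wells. Ki was taken as relative IC50 divided by 2.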

Test [1] relates to anti-CD3 activated human PBMCs. The test can be described thus: Effect of compounds on the level of IL-2 secretion by anti-CD3 activated human PBMCs (IL-2 ELISA). It is filed as cell-based. The note with it: compound concentration at which fold change in IL-2 = 5; hPBMCs, CD3 antibody 2 μg/mL, 48 h, compound from 3 μM. On the procedure: 2. Inoculate the resuspended cells into a 96-well cell culture plate at 200 ul/well of cell suspension, and incubate in a 37° C. cell incubator for 1 h;
3. Adjust the compound concentration with DMSO, starting at a final concentration of 3 μM, and perform a 3-fold dilution sequentially for 10 concentration gradients, with an additional DMSO control well set up; and
4. Adjust the CD3 antibody to an appropriate concentration to achieve a final concentration of 2 μg/mL, mix thoroughly, and incubate in a 37° C. cell incubator for 48h.
5. After 48 h, centrifuge at 1500 rpm for 5 min to collect the supernatant of the culture medium for the human IL-2 ELISA test.
The OD values obtained from the ELISA test are converted into the fold change (FC) in IL-2 concentration. […] The EC50 is calculated using GraphPad Prism. When the fold change=5, the corresponding compound concentration is CFC=5 (in nM).

CBL-B protein, sequence (Q13191 whole entry): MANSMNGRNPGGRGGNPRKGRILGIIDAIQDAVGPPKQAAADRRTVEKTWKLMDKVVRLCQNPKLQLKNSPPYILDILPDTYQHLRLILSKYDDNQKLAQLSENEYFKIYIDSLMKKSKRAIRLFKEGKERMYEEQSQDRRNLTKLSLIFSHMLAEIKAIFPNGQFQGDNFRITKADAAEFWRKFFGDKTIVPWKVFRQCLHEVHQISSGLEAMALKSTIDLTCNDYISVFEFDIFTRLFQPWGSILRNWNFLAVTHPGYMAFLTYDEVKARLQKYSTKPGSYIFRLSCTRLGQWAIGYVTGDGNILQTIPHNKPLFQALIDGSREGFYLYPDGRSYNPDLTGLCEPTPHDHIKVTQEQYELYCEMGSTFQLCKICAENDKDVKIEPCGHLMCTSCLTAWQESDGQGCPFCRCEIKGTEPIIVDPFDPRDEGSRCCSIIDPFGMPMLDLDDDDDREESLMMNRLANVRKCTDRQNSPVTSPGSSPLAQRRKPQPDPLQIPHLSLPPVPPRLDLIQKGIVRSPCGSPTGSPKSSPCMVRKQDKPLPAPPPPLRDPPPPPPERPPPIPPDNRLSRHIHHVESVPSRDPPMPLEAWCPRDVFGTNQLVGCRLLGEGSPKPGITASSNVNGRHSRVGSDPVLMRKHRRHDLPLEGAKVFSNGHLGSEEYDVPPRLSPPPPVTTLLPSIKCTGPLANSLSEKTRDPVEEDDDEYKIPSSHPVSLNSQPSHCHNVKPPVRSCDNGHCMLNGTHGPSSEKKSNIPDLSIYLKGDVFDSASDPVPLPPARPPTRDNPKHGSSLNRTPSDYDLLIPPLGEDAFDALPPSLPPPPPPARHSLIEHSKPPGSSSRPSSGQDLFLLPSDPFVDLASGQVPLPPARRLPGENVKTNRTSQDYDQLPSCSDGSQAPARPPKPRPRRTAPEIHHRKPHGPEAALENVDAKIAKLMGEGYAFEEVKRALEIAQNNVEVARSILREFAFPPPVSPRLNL

A word on the Ki: it is a dissociation constant, usually derived from enzyme kinetics or from competition with a known ligand. On CBL-B protein, `C[C@H](NCc1cc2c(C(F)(F)F)cn(-c3cccc([C@]4(c5nncn5C)C[C@@H](C)C4)c3)c(=O)c2[nH]1)C(C)(C)C` [Compound T158, 2-((((S)-3,3-dimethylbutan-2-yl)amino)methyl)-6-(3-((1s,3R)-3-methyl-1-(4-methyl-4H-1,2,4-triazol-3-yl)cyclobutyl)phenyl)-4-(trifluoromethyl)-1,6-dihydro-7H-pyrrolo[2,3-c]pyridin-7-one] yielded a Ki of less than 50 nM. In addition, the “IL-2 CFC=5/nM” value in test [1] was less than 500 nM.
For `C[C@H]1CCCN(Cc2cc3c(C(F)(F)F)cn(-c4cccc(C(C)(C)c5nncn5C)c4)c(=O)c3[nH]2)C1` [Compound T017, 6-[3-[1-methyl-1-(4-methyl-1,2,4-triazol-3-yl)ethyl]phenyl]-2-[[(3S)-3-methyl-1-piperidyl]methyl]-4-(trifluoromethyl)-1H-pyrrolo[2,3-c]pyridin-7-one], in that order: less than 50 nM and less than 500 nM.
In the same order, the values of `Cn1cnnc1C1(c2cccc(-n3cc(C(F)(F)F)c4cc(CN5CCC[C@@H]6C[C@@H]65)[nH]c4c3=O)c2)CCC1` [Compound T027, 2-(((1 S,6R)-2-azabicyclo [4.1.0]heptan-2-yl)methyl)-6-(3-(1-(4-methyl-4H-1,2,4-triazol-3-yl)cyclobutyl)phenyl)-4-(trifluoromethyl)-1,6-dihydro-7H-pyrrolo[2,3-c]pyridin-7-one] are less than 50 nM and less than 500 nM.
`CCN(Cc1cc2c(C(F)(F)F)cn(-c3cccc([C@]4(c5nncn5C)C[C@@H](C)C4)c3)c(=O)c2[nH]1)CC(C)C` [Compound T069, 2-((ethyl(isobutyl)amino)methyl)-6-(3-((1s,3s)-3-methyl-1-(4-methyl-4H-1,2,4-triazol-3-yl)cyclobutyl)phenyl)-4-(trifluoromethyl)-1,6-dihydro-7H-pyrrolo[2,3-c]pyridin-7-one] returned a Ki on CBL-B protein of less than 50 nM. In addition, the “IL-2 CFC=5/nM” value in test [1] is given as less than 500 nM.
Turning to `CCN(Cc1cc2c(C(F)(F)F)cn(-c3cccc(C4(c5nncn5C)CCC4)c3)c(=O)c2[nH]1)CC(C)C` [Compound T041, 2-[[ethyl(isobutyl)amino]methyl]-6-[3-[1-(4-methyl-1,2,4-triazol-3-yl)cyclobutyl]phenyl]-4-(trifluoromethyl)-1H-pyrrolo[2,3-c]pyridin-7-one], the Ki on CBL-B protein was less than 50 nM. For the same compound, the “IL-2 CFC=5/nM” value in test [1] is given as less than 500 nM.
In the same order, the values of `C[C@H]1CCCN(Cc2cc3c(C(F)(F)F)cn(-c4cc(C#N)cc([C@]5(c6nncn6C)C[C@@H](C)C5)c4)c(=O)c3[nH]2)C1` [Compound T121, 3-((1s,3R)-3-methyl-1-(4-methyl-4H-1,2,4-triazol-3-yl)cyclobutyl)-5-(2-(((S)-3-methylpiperidin-1-yl)methyl)-7-oxo-4-(trifluoromethyl)-1,7-dihydro-6H-pyrrolo[2,3-c]pyridin-6-yl)benzonitrile] are less than 50 nM and less than 500 nM.
In the same order, the values of `Cn1cnnc1[C@]1(c2cccc(-n3cc(C(F)(F)F)c4cc(CNC5(C)CCC5)[nH]c4c3=O)c2)C[C@H](C)C1` [Compound T035, 6-(3-((1s,3s)-3-methyl-1-(4-methyl-4H-1,2,4-triazol-3-yl)cyclobutyl)phenyl)-2-(((1-methylcyclobutyl)amino)methyl)-4-(trifluoromethyl)-1,6-dihydro-7H-pyrrolo[2,3-c]pyridin-7-one] are less than 50 nM and less than 500 nM.
For `C[C@H]1CCCN(Cc2cc3c(C4CC4)cn(-c4cccc([C@]5(Cc6nncn6C)C[C@H](C)C5)c4)c(=O)c3[nH]2)C1` [Compound T037, 4-cyclopropyl-6-(3-((1s,3R)-3-methyl-1-((4-methyl-4H-1,2,4-triazol-3-yl)methyl)cyclobutyl)phenyl)-2-(((S)-3-methylpiperidin-1-yl)methyl)-1,6-dihydro-7H-pyrrolo[2,3-c]pyridin-7-one], in that order: less than 50 nM and less than 500 nM.
The compound `C[C@H]1CCCN(Cc2cc3c(C(F)(F)F)cn(-c4cc(F)cc([C@]5(c6nncn6C)C[C@H](C)C5)c4)c(=O)c3[nH]2)C1` [Compound T103, 6-(3-fluoro-5-((1r,3S)-3-methyl-1-(4-methyl-4H-1,2,4-triazol-3-yl)cyclobutyl)phenyl)-2-(((S)-3-methylpiperidin-1-yl)methyl)-4-(trifluoromethyl)-1,6-dihydro-7H-pyrrolo[2,3-c]pyridin-7-one] displayed a Ki at CBL-B protein of less than 50 nM. Moreover, in test [1], the “IL-2 CFC=5/nM” value is given as less than 500 nM.
The compound `Cn1cnnc1C1(c2cccc(-n3cc(C(F)(F)F)c4cc(CN5CCC[C@H]6C[C@H]65)[nH]c4c3=O)c2)CCC1` [Compound T026, 2-(((1R,6S)-2-azabicyclo [4.1.0]heptan-2-yl)methyl)-6-(3-(1-(4-methyl-4H-1,2,4-triazol-3-yl)cyclobutyl)phenyl)-4-(trifluoromethyl)-1,6-dihydro-7H-pyrrolo[2,3-c]pyridin-7-one] yielded a Ki at CBL-B protein of less than 50 nM. For the same compound, the “IL-2 CFC=5/nM” value in test [1] is reported as less than 500 nM.
In the same order, the values of `Cn1cnnc1C1(c2cccc(-n3cc(C(F)(F)F)c4cc(CNC(C)(C)C)[nH]c4c3=O)c2)CCC1` [Compound T161, 2-((tert-butylamino)methyl)-6-(3-(1-(4-methyl-4H-1,2,4-triazol-3-yl)cyclobutyl)phenyl)-4-(trifluoromethyl)-1,6-dihydro-7H-pyrrolo[2,3-c]pyridin-7-one] are less than 50 nM and less than 500 nM.
For `Cn1cnnc1[C@]1(c2cccc(-n3cc(C(F)(F)F)c4cc(CN5CCCC(C(F)F)C5)[nH]c4c3=O)c2)C[C@H](C)C1` (some centres unmarked) [Compound T157, 2-((3-(difluoromethyl)piperidin-1-yl)methyl)-6-(3-((1s,3s)-3-methyl-1-(4-methyl-4H-1,2,4-triazol-3-yl)cyclobutyl)phenyl)-4-(trifluoromethyl)-1,6-dihydro-7H-pyrrolo[2,3-c]pyridin-7-one], in that order: less than 50 nM and less than 500 nM.
For `CO[C@H]1C[C@@](c2cccc(-n3cc(C(F)(F)F)c4cc(CNC5(C)CCC5)[nH]c4c3=O)c2)(c2nncn2C)C1` [Compound T067, 6-(3-((1s,3s)-3-methoxy-1-(4-methyl-4H-1,2,4-triazol-3-yl)cyclobutyl)phenyl)-2-(((1-methylcyclobutyl)amino)methyl)-4-(trifluoromethyl)-1,6-dihydro-7H-pyrrolo[2,3-c]pyridin-7-one], in that order: less than 50 nM and less than 500 nM.
At CBL-B protein, `CO[C@H]1C[C@@](c2cccc(-n3cc(C(F)(F)F)c4cc(CN5CCC[C@H](C)C5)[nH]c4c3=O)c2)(c2nncn2C)C1` [Compound T134, 6-(3-((1s,3R)-3-methoxy-1-(4-methyl-4H-1,2,4-triazol-3-yl)cyclobutyl)phenyl)-2-(((S)-3-methylpiperidin-1-yl)methyl)-4-(trifluoromethyl)-1,6-dihydro-7H-pyrrolo[2,3-c]pyridin-7-one] yielded a Ki of less than 50 nM. Further, in test [1], the “IL-2 CFC=5/nM” value is less than 500 nM.
For `CCNCc1cc2c(C(F)(F)F)cn(-c3cccc(C4(c5nncn5C)CCC4)c3)c(=O)c2[nH]1` [Compound T102, 2-((ethylamino)methyl)-6-(3-(1-(4-methyl-4H-1,2,4-triazol-3-yl)cyclobutyl)phenyl)-4-(trifluoromethyl)-1,6-dihydro-7H-pyrrolo[2,3-c]pyridin-7-one], in that order: less than 50 nM and less than 500 nM.
The compound `C[C@H]1CCCN(Cc2cc3c(C(F)(F)F)cn(-c4cccc(C5(c6nncn6C)CC(F)C5)c4)c(=O)c3[nH]2)C1` (stereo partly drawn) [Compound T070, 6-[3-[3-fluoro-1-(4-methyl-1,2,4-triazol-3-yl)cyclobutyl]phenyl]-2-[[(3S)-3-methyl-1-piperidyl]methyl]-4-(trifluoromethyl)-1H-pyrrolo[2,3-c]pyridin-7-one] showed a Ki at CBL-B protein of less than 50 nM. Besides, in test [1], the “IL-2 CFC=5/nM” value is given as less than 500 nM.
In the same order, the values of `Cn1cnnc1C1(c2cccc(-n3cc(C(F)(F)F)c4cc(CN5CC6CC6C5)[nH]c4c3=O)c2)CCC1` (centres unmarked) [Compound T007, 2-((3-azabicyclo[3.1.0]hexan-3-yl)methyl)-6-(3-(1-(4-methyl-4H-1,2,4-triazol-3-yl)cyclobutyl)phenyl)-4-(trifluoromethyl)-1,6-dihydro-7H-pyrrolo[2,3-c]pyridin-7-one] are less than 50 nM and less than 500 nM.
`CCN(CC)Cc1cc2c(C(F)(F)F)cn(-c3cccc(C4(c5nncn5C)CCC4)c3)c(=O)c2[nH]1` [Compound T005, 2-(diethylaminomethyl)-6-[3-[1-(4-methyl-1,2,4-triazol-3-yl)cyclobutyl]phenyl]-4-(trifluoromethyl)-1H-pyrrolo[2,3-c]pyridin-7-one] yielded a Ki on CBL-B protein of less than 50 nM. In addition, the “IL-2 CFC=5/nM” value in test [1] was less than 500 nM.
In the same order, the values of `CO[C@H]1C[C@@](c2cccc(-n3cc(C(F)(F)F)c4cc(CN5CCCC6(CC6)C5)[nH]c4c3=O)c2)(c2nncn2C)C1` [Compound T147, 2-((5-azaspiro[2.5]octan-5-yl)methyl)-6-(3-((1s,3s)-3-methoxy-1-(4-methyl-4H-1,2,4-triazol-3-yl)cyclobutyl)phenyl)-4-(trifluoromethyl)-1,6-dihydro-7H-pyrrolo[2,3-c]pyridin-7-one] are less than 50 nM and less than 500 nM.
